Laboratory results from patent US20230365582A1, “NOVEL COMPOUNDS HAVING INHIBITORY ACTIVITY ON PROSTAGLANDIN E2 RECEPTOR AND USES THEREOF” (KANAPH THERAPEUTICS INC., priority 2020, published 2023).

Legend:
hEP4 = biological target: T1, hEP4 (Homo sapiens, UniProt P35408); assay: hEP4 cAMP assay; type: cell-based; conditions: HEK293 cells overexpressing hEP4; PGE2 agonist 20 nM; graded per Table 21; read-out: IC50 (nM) EP4 cAMP
T1 construct: expressed in transfected cells; host or cells: HEK293
Description: (§1) HEK293 cells overexpressing hEP4 were cultured in growth medium (GM: MEM (Gibco™, 11095080)/10% HI FBS (Gibco™, 10082147)/1% penicillin/streptomycin). Before the experiment, the growth medium was removed, and starvation medium (HBSS (Gibco™ 14025076)/10% GM) was added. Thereafter, the cells were incubated for 4 hours. HEK293 cells harboring hEP4 were detached from the culture dish with a non-enzymatic cell dissociation buffer (Gibco™, 15040066). The cells were resuspended in assay buffer (AB: HBSS, 0.1% BSA stabilizer, 0.5 mM IBMX, 5 mM HEPES).
(§2) 1,000 cells in 5 μL of AB were seeded per well in a 384 well plate (Corning®, 3570), and stock solutions of test compounds were prepared at a concentration of 1 mM in DMSO and serially diluted in DMSO to the concentration required for the inhibition dose response curve (test concentration range of 10 μM-0.001 nM). PGE2 (Sigma, P0409, stock solution: 100 μM) was used as an agonist at a final concentration of 20 nM corresponding to EC50-80. 2.5 μL of the diluted compound and 2.5 μL of PGE2 (20 nM final concentration) were transferred to the assay plate, and then the plate was incubated at room temperature for 18.5 minutes.
(§3) 5 μL of each donor (Eu-cAMP tracer) and acceptor (ULight-anti-cAMP) was added, and the plate was incubated in the dark for 1 hour at room temperature, and then a Varioskan LUX multimode microplate reader was used to obtain the results (excitation: 334 nm, emission: 615 and 665 nm). The resulting FRET fluorescence value (665 nm/615 nm*10000) was converted and then calculated as a percentage of cAMP compared to the DMSO control value. IC50 values and curves were generated with GraphPad Prism software using log (inhibitor) versus response-variable slope (4 parameters), and the median of multiple experiments was taken as the experiment result.

hEP2 = biological target: T2, hEP2 (Homo sapiens, UniProt P43116); assay: hEP2 cAMP assay; type: cell-based; conditions: HEK293 cells overexpressing hEP2; PGE2 agonist 400 pM; graded per Table 21; read-out: IC50 (nM) EP2 cAMP
T2 construct: expressed in transfected cells; host or cells: HEK293
T2 sequence (P43116 whole entry): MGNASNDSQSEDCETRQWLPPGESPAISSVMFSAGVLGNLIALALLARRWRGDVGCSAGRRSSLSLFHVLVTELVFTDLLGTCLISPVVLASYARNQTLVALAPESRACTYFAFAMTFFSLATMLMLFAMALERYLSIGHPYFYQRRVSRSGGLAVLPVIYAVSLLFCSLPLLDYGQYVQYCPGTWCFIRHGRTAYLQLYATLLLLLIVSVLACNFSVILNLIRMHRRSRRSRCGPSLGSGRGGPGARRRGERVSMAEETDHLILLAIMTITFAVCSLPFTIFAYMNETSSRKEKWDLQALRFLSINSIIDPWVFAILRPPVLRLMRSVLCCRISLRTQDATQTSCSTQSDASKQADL
Description: as §1, with “overexpressing hEP2” for “overexpressing hEP4”, “(HBSS (Gibco™,” for “(HBSS (Gibco™”, “hours. The” for “hours.”, “harboring hEP2” for “harboring hEP4”
as §2, with “(Corning™,” for “(Corning®,”, “1” for “100”, “400 pM” for “20 nM”, “(400 pM” for “(20 nM”, “12” for “18.5”
as §3, with “relative” for “compared”, “slopes” for “slope”

T1 sequence (P35408 whole entry): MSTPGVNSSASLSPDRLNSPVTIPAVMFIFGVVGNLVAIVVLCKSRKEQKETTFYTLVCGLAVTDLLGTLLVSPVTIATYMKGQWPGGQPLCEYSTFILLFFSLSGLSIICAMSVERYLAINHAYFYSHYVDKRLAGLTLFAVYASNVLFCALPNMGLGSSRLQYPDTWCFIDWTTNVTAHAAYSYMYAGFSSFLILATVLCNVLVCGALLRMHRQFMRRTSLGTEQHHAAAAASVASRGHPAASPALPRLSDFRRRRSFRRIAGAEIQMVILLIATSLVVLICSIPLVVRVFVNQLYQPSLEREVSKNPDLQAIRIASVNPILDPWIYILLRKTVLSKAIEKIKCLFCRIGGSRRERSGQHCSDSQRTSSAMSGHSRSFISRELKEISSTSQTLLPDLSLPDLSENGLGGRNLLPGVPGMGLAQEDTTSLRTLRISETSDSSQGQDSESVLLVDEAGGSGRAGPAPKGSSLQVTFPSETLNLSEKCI

Row | IC50 (hEP4) | IC50 (hEP2) | SMILES
1 | < 500 nM | 500 to 5000 nM | COc1cc(-c2ccc(Cc3c(C)sc(C)c3C(=O)NC3CC4(C3)CC(C(=O)O)C4)cc2)cc(N2CCC2=O)c1 (stereo not drawn) [Example 62, 6-(4-((3′-methoxy-5′-(2-oxoazetidin-1-yl)-[1,1′-biphenyl]-4-yl)methyl)-2,5-dimethylthiophene-3-carboxamido)spiro[3.3]heptane-2-carboxylic acid]
2 | < 500 nM | 500 to 5000 nM | COc1cc(F)cc(-c2ccc(Cc3ccsc3C(=O)NC3CC4(C3)CC(C(=O)O)C4)cc2)c1 (stereo not drawn) [Example 19, 6-(3-((3′-fluoro-5′-methoxy-[1,1′-biphenyl]-4-yl)methyl)thiophene-2-carboxamido) spiro[3.3]heptane-2-carboxylic acid]
3 | < 500 nM | 500 to 5000 nM | COc1cc(OC)cc(-c2ccc(Cc3c(C)sc(C)c3C(=O)NC3CC4(C3)CC(C(=O)O)C4)cc2)c1 (stereo not drawn) [Example 53, 6-(4-((3′,5′-dimethoxy-[1,1′-biphenyl]-4-yl)methyl)-2,5-dimethylthiophene-3-carboxamido)spiro[3.3]heptane-2-carboxylic acid]
4 | > 10000 nM | > 10000 nM | Cc1sc(C)c(C(=O)NC2CC3(C2)CC(C(=O)O)C3)c1Oc1ccc(-c2ccccc2)cc1 (stereo not drawn) [Example 74, 6-(4-([1,1′-biphenyl]-4-yloxy)-2,5-dimethylthiophene-3-carboxamido)spiro[3.3]heptane-2-carboxylic acid]
5 | < 500 nM | > 10000 nM | Cc1sc(C)c(C(O)c2ccc(-c3ccccc3)cc2)c1C(=O)NC1CC2(C1)CC(C(=O)O)C2 (stereo not drawn) [Example 11, 6-(4-([1,1′-biphenyl]-4-yl(hydroxy)methyl)-2,5-dimethylthiophene-3-carboxamido)spiro[3.3]heptane-2-carboxylic acid]
6 | < 500 nM | > 10000 nM | Cn1cc(-c2ccc(Cn3ccc4scc(C(=O)NC5CC6(C5)CC(C(=O)O)C6)c43)cc2)cn1 (stereo not drawn) [Example 102, 6-(4-(4-(1-methyl-1H-pyrazol-4-yl)benzyl)-4H-thieno[3,2-b]pyrrole-3-carboxamido)spiro[3.3]heptane-2-carboxylic acid]
7 | 500 to 5000 nM | > 10000 nM | Cc1sc(C)c(C(=O)NC2CC3(C2)CC(C(=O)O)C3)c1Cc1ccc(C2=CCCCC2)cc1 (stereo not drawn) [Example 32, 6-(2,5-dimethyl-4-((2′,3′,4′,5′_ tetrahydro-[1,1′-biphenyl]-4-yl)methyl)thiophene-3-carboxamido)spiro[3.3]heptane-2-carboxylic acid]
8 | 500 to 5000 nM | > 10000 nM | Cc1sc(C)c(N(C)c2ccc(-c3ccccc3)cc2)c1C(=O)NC1CC2(C1)CC(C(=O)O)C2 (stereo not drawn) [Example 76, 6-(4-([1,1′-biphenyl]-4-yl(methyl)amino)-2,5-dimethylthiophene-3-carboxamido)spiro[3.3]heptane-2-carboxylic acid]
9 | < 500 nM | < 500 nM | O=C(NC1CC2(C1)CC(C(=O)O)C2)c1csc2ccn(Cc3ccc(-c4ccccc4)cc3)c12 (stereo not drawn) [Example 79, 6-(4-([1,1′-biphenyl]-4-ylmethyl)-4H-thieno[3,2-b]pyrrole-3-carboxamido)spiro[3.3]heptane-2-carboxylic acid]
10 | 5000 to 10000 nM | > 10000 nM | Cc1sc(C)c(C(=O)NC2CC3(C2)CC(C(=O)O)C3)c1Cc1cccc(-c2ccccc2)c1 (stereo not drawn) [Example 3, 6-(4-([1,1′-biphenyl]-3-ylmethyl)-2,5-dimethylthiophene-3-carboxamido)spiro[3.3]heptane-2-carboxylic acid]
11 | < 500 nM | 500 to 5000 nM | Cc1sc(C)c(C(=O)NC2CC3(C2)CC(C(=O)O)C3)c1Cc1ccc(-c2ccccc2)cc1F (stereo not drawn) [Example 7, 6-(4-((3-fluoro-[1,1′-biphenyl]-4-yl)methyl)-2,5-dimethylthiophene-3-carboxamido)spiro[3.3]heptane-2-carboxylic acid]
12 | 500 to 5000 nM | > 10000 nM | Cc1sc(C)c(C(=O)NC2CC3(C2)CC(C(=O)O)C3)c1Cc1ccc(-c2cc(F)cc(CN)c2)cc1 (stereo not drawn) [Example 64, 6-(4-((3′-(aminomethyl)-5′-fluoro-[1,1′-biphenyl]-4-yl)methyl)-2,5-dimethylthiophene-3-carboxamido)spiro[3.3]heptane-2-carboxylic acid]
13 | > 10000 nM | 500 to 5000 nM | Cc1sc2ccn(Cc3ccc(-c4ccccc4)cc3)c2c1C(=O)N[C@H]1CC2(C1)C[C@H](C(=O)O)C2 (single isomer, unassigned) [Example 80a]
14 | < 500 nM | 500 to 5000 nM | Cc1sc(C)c(C(=O)NC2CC3(C2)CC(C(=O)O)C3)c1Cc1ccc(-c2cc(O)cc(F)c2)cc1 (stereo not drawn) [Example 71, 6-(4-((3′-fluoro-5′-hydroxy-[1,1′-biphenyl]-4-yl)methyl)-2,5-dimethylthiophene-3-carboxamido)spiro[3.3]heptane-2-carboxylic acid]
15 | 500 to 5000 nM | 500 to 5000 nM | O=C(NC1CC2(C1)CC(C(=O)O)C2)c1csc(C2CC2)c1Cc1ccc(-c2ccccc2)cc1 (stereo not drawn) [Example 22]
16 | < 500 nM | 500 to 5000 nM | COc1ccnc(-c2ccc(Cn3ccc4scc(C(=O)NC5CC6(C5)CC(C(=O)O)C6)c43)cc2)c1 (stereo not drawn) [Example 109, 6-(4-(4-(4-methoxypyridin-2-yl)benzyl)-4H-thieno[3,2-b]pyrrole-3-carboxamido)spiro[3.3]heptane-2-carboxylic acid]
17 | 500 to 5000 nM | 500 to 5000 nM | O=C(NC1CC2(C1)CC(C(=O)O)C2)c1cscc1Cc1ccc(-c2ccccc2)cc1 (stereo not drawn) [Example 13, 6-(4-([1,1′-biphenyl]-4-ylmethyl)thiophene-3-carboxamido)spiro[3.3]heptane-2-carboxylic acid]
18 | 500 to 5000 nM | > 10000 nM | O=C(NC1CC2(C1)CC(C(=O)O)C2)c1c(Br)sc(Br)c1Cc1ccc(-c2ccccc2)cc1 (stereo not drawn) [Example 16, 6-(4-([1,1′-biphenyl]-4-ylmethyl)-2,5-dibromothiophene-3-carboxamido)spiro[3.3]heptane-2-carboxylic acid]
19 | < 500 nM | 500 to 5000 nM | Cc1sc(C)c(C(=O)N[C@H]2CC3(C2)C[C@H](C(=O)O)C3)c1Cc1ccc(-c2ccccc2)cc1 (single isomer, unassigned) [Example 1b]
20 | 500 to 5000 nM | > 10000 nM | Cc1sc(C)c(C(=O)NC2CC3(C2)CC(C(=O)O)C3)c1Cc1ccc(-c2cccnc2)cc1 (stereo not drawn) [Example 27, 6-(2,5-dimethyl-4-(4-(pyridin-3-yl)benzyl)thiophene-3-carboxamido)spiro[3.3]heptane-2-carboxylic acid]
21 | 500 to 5000 nM | > 10000 nM | Cc1cc(C(F)(F)F)n(-c2ccc(Cn3ccc4scc(C(=O)NC5CC6(C5)CC(C(=O)O)C6)c43)cc2)n1 (stereo not drawn) [Example 112, 6-(4-(4-(3-methyl-5-(trifluoromethyl)-IH-pyrazol-1-yl)benzyl)-4H-thieno[3,2-b]pyrrole-3-carboxamido)spiro[3.3]heptane-2-carboxylic acid]
22 | 500 to 5000 nM | > 10000 nM | COc1ccc(F)c(-c2ccc(Cc3c(C)sc(C)c3C(=O)NC3CC4(C3)CC(C(=O)O)C4)cc2)c1 (stereo not drawn) [Example 47, 6-(4-((2′-fluoro-5′-methoxy-[1,1′-biphenyl]-4-yl)methyl)-2,5-dimethylthiophene-3-carboxamido)spiro[3.3]heptane-2-carboxylic acid]
23 | < 500 nM |  | Cc1sc2ccn(Cc3ccc(-c4ccccc4)cc3)c2c1C(=O)N[C@H]1CC2(C1)C[C@H](C(=O)O)C2 (single isomer, unassigned) [Example 80b]
